Measured values: PMC8962522, “Direct interaction of TrkA/CD44v3 is essential for NGF-promoted aggressiveness of breast cancer cells” (Journal of Experimental & Clinical Cancer Research : CR, 2022)

Experiments:
[1] = tested on: MDA-MB-231 cells; assay: Elongation factor (length-to-width ratio), MDA-MB-231; format: cell-based; details: MDA-MB-231, with NGF
Procedure: Therefore, in this study, we assessed TrkA binding to CD44v3 in MDA-MB-231 cells, which were used as TNBC model cells. First, PLA was performed using anti-CD44 variant 3- (Fig. 3A and Supplementary Fig. 7) or anti-CD44 variant 6-specific antibodies (Fig. 3B). […] Next, we tested the ability of CD44v3 mimetic peptides to block TrkA/CD44v3 complex formation in MDA-MB-231 cells (Fig. 3C-E). […] Therefore, we evaluated the physiological consequences of TrkA/CD44v3 complex dissociation induced by CD44v3 mimetic peptide 4 on MDA-MB-231 cell phenotypes (Fig. 4). We first examined the effect of mimetic peptide 4 on clonogenic cell growth. For this experiment, MDA-MB-231 cells were grown in the presence of 2% FBS for […] in the presence or absence of CD44v3 mimetic peptide 4 (Fig. 4A and B). […] We first determined the effect of CD44v3 on the length-to-width (l/w) ratio of the cells (elongation factor) (Fig. 4C-E). […]
Fig. 4 CD44v3 mimetic peptide 4 inhibits MDA-MB-231 breast cancer cell growth and migration/invasion. Clonogenic MDA-MB-231 cell growth was measured after 10 days in the presence of a scramble peptide (SP) or CD44v3 mimetic peptide (P4) (A, B). The elongation factor (length-to-width ratio) was assessed after 10 days in the presence or absence of NGF (C, D, E). […] Invasion through collagen 1 was measured by the Transwell assay 16 h after treatment (J, K). […]

[2] = tested on: TrkA/CD44v3 complex in MDA-MB-231 cells; assay: PLA TrkA/CD44v3 complex formation in MDA-MB-231 cells; format: cell-based; details: NGF 100 ng/ml; 30 fields per condition, three experiments
Procedure: Cells (10,000 cells per well) were grown on acid-washed eight-well glass slides (Thermo Scientific) in the appropriate medium supplemented with 10% FBS for 24 h. After NGF treatment, paraformaldehyde (PAF)-fixed cells were incubated with 4% bovine serum albumin (BSA) or 5% FBS (for 1 h at 20 °C), followed by overnight incubation with primary antibodies (rabbit anti-TrkA or rabbit anti-IgG + mouse anti-pan-CD44; mouse anti-CD44v3; mouse anti-CD44v6; mouse anti-IgG2a; mouse anti-IgG2b; or mouse anti-IgG1). PLA was performed following the manufacturer’s instructions in the assay kit (Duolink PLA; Sigma–Aldrich). To obtain the correct representation of the PLA signal for each condition, 30 fields per condition were observed using a fluorescence microscope (Eclipse TiU; Nikon, Japan). The PLA signals (red dots) were automatically quantified using ImageJ software (with an in-house-developed plug-in). After PLA, statistical analyses were performed using GraphPad Prism software to determine the mean dot intensity in the cells.
Fig. 3 CD44v3 mimetic peptide 4 blocks the TrkA-CD44 association in MDA-MB-231 breast cancer cells. TrkA/CD44v3 (A) and TrkA/CD44v6 (B) complex associations were detected by the proximity ligation assay (PLA) in MDA-MB-231 breast cancer cells. Effects of a scramble peptide (SP) (C), CD44v3 mimetic peptide 3 (P3) and 4 (P4) (D) on TrkA/CD44v3 complex formation induced by NGF. Quantification of the PLA results was performed by ImageJ software (30 randomly chosen fields per condition of three different experiments). Statistical analyses were performed using one-way ANOVA followed by Bonferroni’s posttest. The error bars represent the standard error of the mean (S.E.M.); * p < 0.05, ** p < 0.01, *** p < 0.001; ns, not significant

Substance | effect on length-to-width (l/w) ratio (elongation factor) [1] | effect on TrkA/CD44v3 complex formation (PLA) in MDA-MB-231 cells [2]
NGF: recombinant human β-NGF (Alomone Labs, Israel) | significant increase in the l/w ratio | induced TrkA/CD44v3 complex formation in MDA-MB-231 cells at the plasma membrane within 5 min to 30 min of administration
IDDDEDFISST [Peptide 4, mimetic peptide 4 (…) corresponding to the C-terminal region of CD44v3] | This effect of NGF was inhibited | could disrupt TrkA/CD44v3 complex formation in MDA-MB-231 cells
